Measured values from patent US20250009877A1, “TREATMENT FOR CANCER” (Seagen Inc., priority 2021, published 2025).

How the values were obtained:
CD40 signaling pathway = conditions: compared to the parent antibody dacetuzumab; cited from earlier work
murine CD40 = murine CD40 (Mus musculus, UniProt P27512); test: Recognition of murine CD40; type: binding
interleukin-10 (IL-10) = test: Induction of immune-dampening cytokines; conditions: unlike fully agonistic antibodies such as antibody 24.4.1
FcγIII receptors = conditions: compared to the fucosylated parent antibody dacetuzumab; cited from earlier work

Chain of murine CD40 (P27512 20-289): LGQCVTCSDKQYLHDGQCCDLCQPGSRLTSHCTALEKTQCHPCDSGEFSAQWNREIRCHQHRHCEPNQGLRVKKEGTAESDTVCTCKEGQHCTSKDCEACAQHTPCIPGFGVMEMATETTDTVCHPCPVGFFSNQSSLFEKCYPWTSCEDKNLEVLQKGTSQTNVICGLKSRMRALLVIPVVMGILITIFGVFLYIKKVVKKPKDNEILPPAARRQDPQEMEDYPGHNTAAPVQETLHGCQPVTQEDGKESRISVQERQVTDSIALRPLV

SEA-CD40: non-fucosylated humanized S2C6 anti-CD40 antibody; heavy chain SEQ ID NO: 1, light chain SEQ ID NO: 2; parent antibody dacetuzumab
ability to activate the CD40 signaling pathway in immune cells (CD40 signaling pathway): enhanced ability to activate
recognition of murine CD40 (murine CD40): does not recognize
production of immune-dampening cytokines such as interleukin-10 (IL-10) (interleukin-10 (IL-10)): does not induce production
binding to FcγIII receptors (FcγIII receptors): enhanced binding
